Reference: patent publication US20240307525A1 (priority 2020, published 2024)

Assays:
Assay in all cases: microbe, parasite or virus in culture
Type in all cases: cell-based, SARS-COV-2
[1] = tested on: rSARS-COV-2-Venus; conditions: Severe acute respiratory syndrome coronavirus 2, Vero C1008
[2] = tested on: rSARS-COV-2-mCherry; conditions: Severe acute respiratory syndrome coronavirus 2, Vero C1008
[3] = tested on: rSARS-COV-2-Nluc; conditions: Severe acute respiratory syndrome coronavirus 2, Vero C1008, 48 h
[4] = tested on: rSARS-COV-2/WT; conditions: Severe acute respiratory syndrome coronavirus 2, Vero C1008

Q: With `CCC(CC)COC(=O)[C@H](C)N[P@](=O)(OC[C@H]1O[C@@](C#N)(c2ccc3c(N)ncnn23)[C@H](O)[C@@H]1O)Oc1ccccc1` [Remdesivir] as the compound, how does the EC50 [1] read?
A: 1070 nM

Q: What about the EC50 [2] of the same compound?
A: 1780 nM

Q: What about the EC50 [3] of the same compound?
A: 1790 nM

Q: What about the EC50 [4] of the same compound?
A: 1510 nM
